Laboratory results as given in patent US9873709B2 (priority 2013, dated 2018).

Test system: JAK1-dependent STAT6 phosphorylation downstream of IL-13 stimulation in TF-1 human erythroleukemia cells
Test: cells
Details: TF-1, read-out: IL-13-pSTAT6 IC50

| Structure (SMILES) | IC50 |
| --- | --- |
| O=C(c1ccc(Nc2nc3c(N4CCC(O)(c5ccc(Cl)cc5)CC4)cccn3n2)cc1)N1C[C@H]2CNC[C@H]2C1 [Example 1-235, [(3aR,6aS)-2,3,3a,4,6,6a-hexahydro-1H-pyrrolo[3,4-c]pyrrol-5-yl]-[4-[[8-[4-(4-chlorophenyl)-4-hydroxy-1-piperidyl]-[1,2,4]triazolo[1,5-a]pyridin-2-yl]amino]phenyl] methanone] | 310 nM |
| CCOC(=O)N1CC=C(c2cccn3nc(Nc4ccc(C(=O)N5CC(C(=O)N6CCN(C)CC6)C5)cc4)nc23)CC1 [Example 2-421, ethyl 4-[2-[4-[3-(4-methylpiperazine-1-carbonyl)azetidine-1-carbonyl]anilino]-[1,2,4]triazolo[1,5-a]pyridin-8-yl]-3,6-dihydro-2H-pyridine-1-carboxylate] | 24.1 nM |
| CN1CCC(N(C)C(=O)c2ccc(Nc3nc4c(C5=CCN(C(=O)OCC(F)F)CC5)cccn4n3)cc2)CC1 [Example 2-225, 2,2-difluoroethyl 4-[2-[4-[methyl-(1-methyl-4-piperidyl)carbamoyl]anilino]-[1,2,4]triazolo[1,5-a]pyridin-8-yl]-3,6-dihydro-2H-pyridine-1-carboxylate] | 11.3 nM |
| O=C(NCCC1CCCN1)c1ccc(Nc2nc3c(C4=CCN(C(=O)CCC(F)(F)F)CC4)cccn3n2)cc1 (centres unmarked) [Example 2-316, N-(2-pyrrolidin-2-ylethyl)-4-[[8-[1-(4,4,4-trifluorobutanoyl)-3,6-dihydro-2H-pyridin-4-yl]-[1,2,4]triazolo[1,5-a]pyridin-2-yl]amino]benzamide] | 145 nM |
| CN1CCC(N(C)C(=O)c2ccc(Nc3nc4c(C5=CCN(C(=O)N6CC(C)(C)C6)CCC5)cccn4n3)cc2)CC1 [Example 2-480, 4-[[8-[1-(3,3-dimethylazetidine-1-carbonyl)-2,3,4,7-tetrahydroazepin-5-yl]-[1,2,4]triazolo[1,5-a]pyridin-2-yl]amino]-N-methyl-N-(1-methyl-4-piperidyl)benzamide] | 178 nM |
| CN(C)C1CCN(C(=O)c2ccc(Nc3nc4c(N5CCC(O)(c6ccc(Cl)cc6)CC5)cccn4n3)cc2)CC1 [Example 1-86, [4-[[8-[4-(4-chlorophenyl)-4-hydroxy-1-piperidyl]-[1,2,4]triazolo[1,5-a]pyridin-2-yl]amino]phenyl]-[4-(dimethylamino)-1-piperidyl]methanone] | 21.3 nM |
| O=C(c1ccc(Nc2nc3c(N4CCC(O)(c5ccc(Cl)cc5)CC4)cccn3n2)cc1)N1CC2(CCCNC2)C1 [Example 1-210, [4-[[8-[4-(4-chlorophenyl)-4-hydroxy-1-piperidyl]-[1,2,4]triazolo[1,5-a]pyridin-2-yl]amino]phenyl]-(2,8-diazaspiro[3.5]nonan-2-yl)methanone] | 43.5 nM |
| CN(C)CCNC(=O)c1ccc(Nc2nc3c(C4=CCN(C(=O)CCC(F)(F)F)CC4)cccn3n2)cc1 [Example 2-336, N-[2-(dimethylamino)ethyl]-4-[[8-[1-(4,4,4-trifluorobutanoyl)-3,6-dihydro-2H-pyridin-4-yl]-[1,2,4]triazolo[1,5-a]pyridin-2-yl]amino]benzamide] | 8.6 nM |
| CCOC(=O)N1CC=C(c2cccn3nc(Nc4ccc(C(=O)NCCC5CCCNC5)cc4)nc23)CC1 (centres unmarked) [Example 2-416, ethyl 4-[2-[4-[2-(3-piperidyl)ethylcarbamoyl]anilino]-[1,2,4]triazolo[1,5-a]pyridin-8-yl]-3,6-dihydro-2H-pyridine-1-carboxylate] | 598 nM |
| O=C(c1ccc(Nc2nc3c(N4CCC(O)(c5ccc(Cl)cc5)CC4)cccn3n2)cc1)N1CCC2(CCNC2)C1 (centres unmarked) [Example 1-207, [4-[[8-[4-(4-chlorophenyl)-4-hydroxy-1-piperidyl]-[1,2,4]triazolo[1,5-a]pyridin-2-yl]amino]phenyl]-(2,7-diazaspiro[4.4]nonan-2-yl)methanone] | 192 nM |
| CCOC(=O)N1CC=C(c2cccn3nc(Nc4ccc(C(=O)NCCCN5CCN(C)CC5)cc4)nc23)CC1 [Example 2-291, ethyl 4-[2-[4-[3-(4-methylpiperazin-1-yl)propylcarbamoyl]anilino]-[1,2,4]triazolo[1,5-a]pyridin-8-yl]-3,6-dihydro-2H-pyridine-1-carboxylate] | 22.3 nM |
| CN(C)C(=O)C1CN(C(=O)c2ccc(Nc3nc4c(N5CCC(O)(c6ccc(Cl)cc6)CC5)cccn4n3)cc2)C1 [Example 1-164, 1-[4-[[8-[4-(4-chlorophenyl)-4-hydroxy-1-piperidyl]-[1,2,4]triazolo[1,5-a]pyridin-2-yl]amino]benzoyl]-N,N-dimethyl-azetidine-3-carboxamide] | 10.8 nM |

Now from value to molecule:

| IC50 | Structure (SMILES) |
| --- | --- |
| 588 nM | O=C(CCC(F)(F)F)N1CC=C(c2cccn3nc(Nc4ccc(C(=O)N5CCOC6(CCNCC6)C5)cc4)nc23)CC1 [Example 2-254, 4,4,4-trifluoro-1-[4-[2-[4-(1-oxa-4,9-diazaspiro[5.5]undecane-4-carbonyl)anilino]-[1,2,4]triazolo[1,5-a]pyridin-8-yl]-3,6-dihydro-2H-pyridin-1-yl]butan-1-one] |
| 20.2 nM | O=C(CCC(F)(F)F)N1CC=C(c2cccn3nc(Nc4ccc(C(=O)N5CCN(c6ccccn6)CC5)cc4)nc23)CC1 [Example 2-397, 4,4,4-trifluoro-1-[4-[2-[4-[4-(2-pyridyl)piperazine-1-carbonyl]anilino]-[1,2,4]triazolo[1,5-a]pyridin-8-yl]-3,6-dihydro-2H-pyridin-1-yl]butan-1-one] |
| 197 nM | O=C(NCC1CCC2(CCNCC2)O1)c1ccc(Nc2nc3c(C4=CCN(C(=O)CCC(F)(F)F)CC4)cccn3n2)cc1 (centres unmarked) [Example 2-83, N-(1-oxa-8-azaspiro[4.5]decan-2-ylmethyl)-4-[[8-[1-(4,4,4-trifluorobutanoyl)-3,6-dihydro-2H-pyridin-4-yl]-[1,2,4]triazolo[1,5-a]pyridin-2-yl]amino]benzamide] |
| 239 nM | O=C(NC1COC2(CCNCC2)C1)c1ccc(Nc2nc3c(C4=CCN(C(=O)CCC(F)(F)F)CC4)cccn3n2)cc1 (centres unmarked) [Example 2-188, N-(1-oxa-8-azaspiro[4.5]decan-3-yl)-4-[[8-[1-(4,4,4-trifluorobutanoyl)-3,6-dihydro-2H-pyridin-4-yl]-[1,2,4]triazolo[1,5-a]pyridin-2-yl]amino]benzamide] |
| 9.1 nM | CN(C)C1CCN(C(=O)c2ccc(Nc3nc4c(C5=CCN(C(=O)CCC(F)(F)F)CC5)cccn4n3)cc2)C1 (centres unmarked) [Example 2-464, 1-[4-[2-[4-[3-(dimethylamino)pyrrolidine-1-carbonyl]anilino]-[1,2,4]triazolo[1,5-a]pyridin-8-yl]-3,6-dihydro-2H-pyridin-1-yl]-4,4,4-trifluoro-butan-1-one] |
| 95 nM | O=C(CCC(F)(F)F)N1CC=C(c2cccn3nc(Nc4ccc(C(=O)N5CC6(CCNC6)C5)cc4)nc23)CC1 [Example 2-35, 1-[4-[2-[4-(2,7-diazaspiro[3.4]octane-2-carbonyl)anilino]-[1,2,4]triazolo[1,5-a]pyridin-8-yl]-3,6-dihydro-2H-pyridin-1-yl]-4,4,4-trifluoro-butan-1-one] |
| 5.5 nM | CN1CCCCC1CNC(=O)c1ccc(Nc2nc3c(C4=CCN(C(=O)CCC(F)(F)F)CC4)cccn3n2)cc1 (centres unmarked) [Example 2-214, N-[(1-methyl-2-piperidyl)methyl]-4-[[8-[1-(4,4,4-trifluorobutanoyl)-3,6-dihydro-2H-pyridin-4-yl]-[1,2,4]triazolo[1,5-a]pyridin-2-yl]amino]benzamide] |
| 163 nM | O=C(CCC(F)(F)F)N1CC=C(c2cccn3nc(Nc4ccc(C(=O)N5CCC6(CCNC6)CC5)cc4)nc23)CC1 [Example 2-136, 1-[4-[2-[4-(2,8-diazaspiro[4.5]decane-8-carbonyl)anilino]-[1,2,4]triazolo[1,5-a]pyridin-8-yl]-3,6-dihydro-2H-pyridin-1-yl]-4,4,4-trifluoro-butan-1-one] |
| 60.5 nM | O=C(CCC(F)(F)F)N1CC=C(c2cccn3nc(Nc4ccc(C(=O)N5CCCC56CCCNC6)cc4)nc23)CC1 (centres unmarked) [Example 2-257, 1-[4-[2-[4-(1,9-diazaspiro[4.5]decane-1-carbonyl)anilino]-[1,2,4]triazolo[1,5-a]pyridin-8-yl]-3,6-dihydro-2H-pyridin-1-yl]-4,4,4-trifluoro-butan-1-one] |
| 7.1 nM | CCN(CC)C1CCN(C(=O)c2ccc(Nc3nc4c(C5=CCN(C(=O)CCC(F)(F)F)CC5)cccn4n3)cc2)C1 (centres unmarked) [Example 2-211, 1-[4-[2-[4-[3-(diethylamino)pyrrolidine-1-carbonyl]anilino]-[1,2,4]triazolo[1,5-a]pyridin-8-yl]-3,6-dihydro-2H-pyridin-1-yl]-4,4,4-trifluoro-butan-1-one] |
| 60 nM | O=C(CCC(F)(F)F)N1CC=C(c2cccn3nc(Nc4ccc(C(=O)N5CC6(CCNCC6)C5)cc4)nc23)CC1 [Example 2-81, 1-[4-[2-[4-(2,7-diazaspiro[3.5]nonane-2-carbonyl)anilino]-[1,2,4]triazolo[1,5-a]pyridin-8-yl]-3,6-dihydro-2H-pyridin-1-yl]-4,4,4-trifluoro-butan-1-one] |
| 217 nM | O=C(CCC(F)(F)F)N1CC=C(c2cccn3nc(Nc4ccc(C(=O)N5CC6(CNC6)C5)cc4)nc23)CC1 [Example 2-392, 1-[4-[2-[4-(2,6-diazaspiro[3.3]heptane-2-carbonyl)anilino]-[1,2,4]triazolo[1,5-a]pyridin-8-yl]-3,6-dihydro-2H-pyridin-1-yl]-4,4,4-trifluoro-butan-1-one] |
| 8.2 nM | CN1CCCCC1C1CCCN1C(=O)c1ccc(Nc2nc3c(C4=CCN(C(=O)CCC(F)(F)F)CC4)cccn3n2)cc1 (centres unmarked) [Example 2-324, 4,4,4-trifluoro-1-[4-[2-[4-[2-(1-methyl-2-piperidyl)pyrrolidine-1-carbonyl]anilino]-[1,2,4]triazolo[1,5-a]pyridin-8-yl]-3,6-dihydro-2H-pyridin-yl]butan-1-one] |
| 40.3 nM | O=C(NCC1CNCCO1)c1ccc(Nc2nc3c(C4=CCN(C(=O)CCC(F)(F)F)CC4)cccn3n2)cc1 (centres unmarked) [Example 2-30, N-(morpholin-2-ylmethyl)-4-[[8-[1-(4,4,4-trifluorobutanoyl)-3,6-dihydro-2H-pyridin-4-yl]-[1,2,4]triazolo[1,5-a]pyridin-2-yl]amino]benzamide] |
